Structures can show the parent of a compound that is named as a salt.

Drawing on patent publication US8299070B2, “Indole compounds and pharmaceutical use thereof” (Japan Tobacco Inc., priority 2009, dated 2012), this text covers IC50 for 57 molecules.

The assay addresses T1, hITK enzyme (FLAG-tagged full-length hITK) (Homo sapiens, UniProt Q08881).
T1 construct: strongly expressing FLAG-tagged full-length hITK in Sf9 cells; FLAG; made in house; host or cells: Sf9 insect cells (ITK); Escherichia coli (GST-SLP76 substrate)
T1 sequence (Q08881 1-620): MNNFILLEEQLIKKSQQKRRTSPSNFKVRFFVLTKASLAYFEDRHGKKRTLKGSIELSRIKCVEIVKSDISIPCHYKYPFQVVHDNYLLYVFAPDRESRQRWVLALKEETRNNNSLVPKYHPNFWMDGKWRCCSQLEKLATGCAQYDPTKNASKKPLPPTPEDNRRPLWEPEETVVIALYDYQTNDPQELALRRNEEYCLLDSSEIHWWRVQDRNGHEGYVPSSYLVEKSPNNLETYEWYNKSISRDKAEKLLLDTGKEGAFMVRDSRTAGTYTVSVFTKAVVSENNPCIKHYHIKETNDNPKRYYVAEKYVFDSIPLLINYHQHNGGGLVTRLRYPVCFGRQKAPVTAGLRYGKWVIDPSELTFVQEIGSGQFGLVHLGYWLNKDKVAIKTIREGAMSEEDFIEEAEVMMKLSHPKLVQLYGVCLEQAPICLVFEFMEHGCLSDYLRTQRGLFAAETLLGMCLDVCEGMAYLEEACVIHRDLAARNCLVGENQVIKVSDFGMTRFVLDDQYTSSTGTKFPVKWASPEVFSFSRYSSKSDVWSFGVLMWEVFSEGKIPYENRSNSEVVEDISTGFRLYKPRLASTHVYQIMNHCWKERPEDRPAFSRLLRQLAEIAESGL
The assay can be described thus: ITK inhibitory activity (HTRF kinase assay, biotinylated GST-SLP76 substrate). The conditions noted are these: IC50 calculated from the 2 test compound concentrations sandwiching 50% ITK inhibitory rate. It counts as biochemical. The method in brief: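 Sf9-expressed hITK (50 ng/mL enzyme solution) reacted 10 min at RT in MOPS pH 7.0, 10 mmol/L MgCl2, 1 mmol/L DTT with E. coli SLP76 aa95–175 substrate; substrate solution held 100 µmol/L ATP (6 µmol/L for selected compounds). HTRF 665/620 ratio, blank-corrected; IC50 interpolated between two concentrations bracketing 50% inhibition.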
As to `CC(=O)N(C)c1ccc2cc(-c3n[nH]c4c3CCCC4)[nH]c2c1` [Example 360], the IC50 (commonly the concentration needed to halve the response being measured) was 67 nM.

Regarding `COC1(C)CCN(c2ccc3cc(-c4n[nH]c5c4CCC(C)(C)C5)[nH]c3c2)C1=O` (stereo not drawn) [Example 243], the IC50 is 24 nM.

In the case of `C[C@H](C(=O)N(CCO)c1ccc2cc(-c3n[nH]c4c3CCC(C)(C)C4)[nH]c2c1)N1CCOCC1` [Example 252], the IC50 is 11 nM.

Turning to `CN(C(=O)CC1CCC(=O)N1)c1ccc2cc(-c3n[nH]c4c3CCC(C)(C)C4)[nH]c2c1` (stereo not drawn) [Example 143], the IC50 is 3 nM.

Turning to `CN(C(=O)CN1CCNC1=O)c1ccc2cc(-c3n[nH]c4c3CCC(C)(C)C4)[nH]c2c1` [Example 185], the IC50 is 2 nM.

With `COCCN(c1ccc2cc(-c3n[nH]c4c3CCC(C)(C)C4)[nH]c2c1)C(=O)[C@H]1CC[C@@H](OC)CC1` [Example 267], the IC50 is 5 nM.

For `CCN(c1ccc2cc(-c3n[nH]c4c3CCC(C)(C)C4)[nH]c2c1)C(=O)[C@H]1CC[C@@H](OC)CC1` [Example 266], the half-inhibitory concentration (IC50) was 7 nM.

Consider `CN(C(=O)C(O)CO)c1ccc2cc(-c3n[nH]c4c3CCC(C)(C)C4)[nH]c2c1` (stereo not drawn) [Example 43], for which the IC50 is 6 nM.

`CC(=O)N(C)CC(=O)N(C)c1ccc2cc(-c3n[nH]c4c3CCC(C)(C)C4)[nH]c2c1` [Example 192]: the IC50 was 2 nM.

As to `CC1(C)CCc2c(-c3cc4ccc(C(=O)N5CCOCC5)cc4[nH]3)n[nH]c2C1` [Example 19], the IC50 is 23 nM.

Take `COCC(=O)N(C)c1ccc2cc(-c3n[nH]c4c3CCCC4)[nH]c2c1` [Example 352]: the IC50 is 37 nM.

With `CN(C)CCCN(C(=O)C1CCOC1)c1ccc2cc(-c3n[nH]c4c3CCC(C)(C)C4)[nH]c2c1` (stereo not drawn) [Example 225], the IC50 is 2 nM.

For `CN(C(=O)CC1CCCC1)c1ccc2cc(-c3n[nH]c4c3CCC(C)(C)C4)[nH]c2c1` [Example 92], the IC50 is 10 nM.

Take `COCCN(C(=O)CN1CCOC(C)C1=O)c1ccc2cc(-c3n[nH]c4c3CCC(C)(C)C4)[nH]c2c1` (stereo not drawn) [Example 265]: the concentration for half-maximal inhibition (IC50) is 2 nM.

As for `CN(C(=O)c1ccccc1)c1ccc2[nH]c(-c3n[nH]c4c3CCC(C)(C)C4)cc2c1` [Example 339], the IC50 is 842 nM.

`CC(C(=O)N(C)c1ccc2cc(-c3n[nH]c4c3CCC(C)(C)C4)[nH]c2c1)N1CCOCC1=O` (stereo not drawn) [Example 147]: the concentration for half-maximal inhibition (IC50) is 8 nM.

For the molecule `CC1CN(CC(=O)N(C)c2ccc3cc(-c4n[nH]c5c4CCC(C)(C)C5)[nH]c3c2)CC(C)O1` (stereo not drawn) [Example 118], the IC50 was 3 nM.

On to `CN(CC(C)(C)C)C(=O)c1ccc2cc(-c3n[nH]c4c3CCC(C)(C)C4)[nH]c2c1` [Example 15], for which the IC50 was 9 nM.

For `CC1(C)CCc2c(-c3cc4cc(NC(=O)c5ccccc5)ccc4[nH]3)n[nH]c2C1` [Example 344], the IC50 was 278 nM.

Consider `CC1(C)CCc2c(-c3cc4cc(C(=O)N5C[C@@H](O)[C@@H](O)C5)ccc4[nH]3)n[nH]c2C1` [Example 335], for which the IC50 is 26 nM.

Turning to `CN(C(=O)C(=O)c1ccccc1)c1ccc2cc(-c3n[nH]c4c3CCC(C)(C)C4)[nH]c2c1` [Example 57], the IC50 is 17 nM.

For `COCCN(C(=O)CN1C(=O)COC[C@@H]1C)c1ccc2cc(-c3n[nH]c4c3CCC(C)(C)C4)[nH]c2c1` [Example 272], the IC50 is 3 nM.

For `Cn1cncc1CNC(=O)c1ccc2[nH]c(-c3n[nH]c4c3CCC(C)(C)C4)cc2c1` [Example 329], the IC50 is 13 nM.

For the molecule `COCCN(C(=O)[C@H](C)N1CCOCC1)c1ccc2cc(-c3n[nH]c4c3CCC(C)(C)C4)[nH]c2c1` [Example 276], the IC50 is 4 nM.

For the molecule `CN1CCC(C(=O)N(C)c2ccc3cc(-c4n[nH]c5c4CCC(C)(C)C5)[nH]c3c2)CC1` [Example 65], the IC50 was 55 nM.

Turning to `CC(C(=O)N(CCO)c1ccc2cc(-c3n[nH]c4c3CCC(C)(C)C4)[nH]c2c1)C1CCOCC1` (stereo not drawn) [Example 242], the half-inhibitory concentration (IC50) was 3 nM.

For `CC1(C)CCc2c(-c3cc4cc(C(=O)N5CCCCC5)ccc4[nH]3)n[nH]c2C1` [Example 333], the IC50 was 106 nM.

For `CC1(C)CCc2c(-c3cc4cc(C(=O)N5CCN(C(=O)OC(C)(C)C)CC5)ccc4[nH]3)n[nH]c2C1` [Example 336], the IC50 was 78 nM.

For the molecule `CC(C)OC(CO)C(=O)N(C)c1ccc2cc(-c3n[nH]c4c3CCC(C)(C)C4)[nH]c2c1` (stereo not drawn) [Example 159], the IC50 was 7 nM.

Turning to `CN(CC(=O)N(C)c1ccc2cc(-c3n[nH]c4c3CCC(C)(C)C4)[nH]c2c1)C(=O)CC(C)(C)O` [Example 193], the half-inhibitory concentration (IC50) is 2 nM.

For `CN(C(=O)[C@H]1CCC(=O)N1C)c1ccc2cc(-c3n[nH]c4c3CCC(C)(C)C4)[nH]c2c1` [Example 150], the IC50 is 2 nM.

In the case of `CC1(C)CCc2c(-c3cc4ccc(N(CCO)C(=O)[C@H]5CC[C@H](O)CC5)cc4[nH]3)n[nH]c2C1` [Example 234], the IC50 was 16 nM.

Regarding `CC(C)CC(=O)N(C)c1ccc2[nH]c(-c3n[nH]c4c3CCC(C)(C)C4)cc2c1` [Example 342], the IC50 was 245 nM.

For the molecule `CC1(C)CCc2c(-c3cc4cc(C(=O)NCCOc5ccccc5)ccc4[nH]3)n[nH]c2C1` [Example 309], the IC50 is 102 nM.

For `C[C@@H](C(=O)N(C)c1ccc2cc(-c3n[nH]c4c3CCC(C)(C)C4)[nH]c2c1)N1CCOCC1` [Example 5, (S)—N-[2-(6,6-dimethyl-4,5,6,7-tetrahydro-1H-indazol-3-yl)-1H-indol-6-yl]-N-methyl-2-(morpholin-4-yl)propionamide hydrochloride], the IC50 was 3 nM.

For the molecule `COCCN(C(=O)CN1C[C@H](C)OCC1=O)c1ccc2cc(-c3n[nH]c4c3CCC(C)(C)C4)[nH]c2c1` [Example 280], the IC50 was 2 nM.

As for `CO[C@H]1CC[C@@H](C(=O)N(C)CC(=O)N(C)c2ccc3cc(-c4n[nH]c5c4CCC(C)(C)C5)[nH]c3c2)CC1` [Example 194], the IC50 is 2 nM.

With `CC1(C)CCc2c(-c3cc4cc(C(=O)NCc5nnn[nH]5)ccc4[nH]3)n[nH]c2C1` [Example 317], the IC50 was 21 nM.

On to `CC1(C)CCc2c(-c3cc4cc(C(=O)N5CCOCC5)ccc4[nH]3)n[nH]c2C1` [Example 298], for which the IC50 is 44 nM.

Turning to `CC(C(=O)N(C)c1ccc2cc(-c3n[nH]c4c3CCC(C)(C)C4)[nH]c2c1)N1CCOC(O)C1` (stereo not drawn) [Example 378], the IC50 is 2 nM.

Regarding `CC1CCN(CC(=O)N(C)c2ccc3cc(-c4n[nH]c5c4CCC(C)(C)C5)[nH]c3c2)C1=O` (stereo not drawn) [Example 162], the IC50 is 1 nM.

On to `COCC(OC)C(=O)N(C)c1ccc2cc(-c3n[nH]c4c3CCC(C)(C)C4)[nH]c2c1` (stereo not drawn) [Example 47], for which the IC50 was 8 nM.

Regarding `CN(C(=O)C(O)C1CCOCC1)c1ccc2cc(-c3n[nH]c4c3CCC(C)(C)C4)[nH]c2c1` (stereo not drawn) [Example 95], the IC50 is 3 nM.

For the molecule `CC1(C)CCc2c(-c3cc4ccc(N(CCO)C(=O)CN5CCOCC5)cc4[nH]3)n[nH]c2C1` [Example 254], the half-maximal inhibitory concentration (IC50) was 5 nM.

With `CN(C(=O)C(O)c1ccccc1)c1ccc2cc(-c3n[nH]c4c3CCC(C)(C)C4)[nH]c2c1` (stereo not drawn) [Example 68], the IC50 was 7 nM.

With `CN1CCN(C(=O)c2ccc3cc(-c4n[nH]c5c4CCC(C)(C)C5)[nH]c3c2)CC1` [Example 14], the 50% inhibitory concentration (IC50) was 40 nM.

Regarding `CC1COCC(=O)N1CC(=O)N(C)c1ccc2cc(-c3n[nH]c4c3CCC(C)(C)C4)[nH]c2c1` (stereo not drawn) [Example 130], the IC50 was 2 nM.

With `CC1(C)CCc2c(-c3cc4ccc(C(=O)Nc5ccccc5)cc4[nH]3)n[nH]c2C1` [Example 9], the IC50 is 334 nM.

`CN(C(=O)C1CCOC1(C)C)c1ccc2cc(-c3n[nH]c4c3CCC(C)(C)C4)[nH]c2c1` (stereo not drawn) [Example 201]: the IC50 is 10 nM.

For the molecule `CCN(C(=O)CN1CCC(C)(C)C1=O)c1ccc2cc(-c3n[nH]c4c3CCC(C)(C)C4)[nH]c2c1` [Example 284], the IC50 is 1 nM.

Turning to `CN(CCO)C(=O)c1ccc2[nH]c(-c3n[nH]c4c3CCC(C)(C)C4)cc2c1` [Example 304], the IC50 was 27 nM.

Take `CC(CO)NC(=O)c1ccc2cc(-c3n[nH]c4c3CCC(C)(C)C4)[nH]c2c1` (stereo not drawn) [Example 20]: the IC50 is 47 nM.

With `CC(NC(=O)c1ccc2[nH]c(-c3n[nH]c4c3CCC(C)(C)C4)cc2c1)C(C)(C)C` (stereo not drawn) [Example 299], the IC50 is 74 nM.

Take `CO[C@H]1CN(C(=O)c2ccc3[nH]c(-c4n[nH]c5c4CCC(C)(C)C5)cc3c2)C[C@H]1OC` [Example 338]: the concentration for half-maximal inhibition (IC50) was 33 nM.

In the case of `CC(=O)N1CCC[C@H]1C(=O)N(C)c1ccc2cc(-c3n[nH]c4c3CCC(C)(C)C4)[nH]c2c1` [Example 165], the half-inhibitory concentration (IC50) was 5 nM.

Take `CNCC(=O)N(C)c1ccc2cc(-c3n[nH]c4c3CCC(C)(C)C4)[nH]c2c1` [Example 126]: the IC50 was 8 nM.

In the case of `COC1CCN(CC(=O)N(C)c2ccc3cc(-c4n[nH]c5c4CCC(C)(C)C5)[nH]c3c2)CC1` [Example 81], the IC50 is 8 nM.
